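The compound was tested at five concentrations on cells cultured in 96-well plates, with a 48-hour exposure period. The concentration for full growth arrest is given as TGI.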
Assays:
Assay in all cases: NCI anticancer screen, dose series, 48 h
MCF7 breast = system: MCF7 breast
NCI/ADR-RES ovarian = system: NCI/ADR-RES ovarian
HT29 colon = system: HT29 colon
SF-268 CNS = system: SF-268 CNS
UACC-257 melanoma = system: UACC-257 melanoma
NCI-H522 lung = system: NCI-H522 lung
TK-10 renal = system: TK-10 renal
LOX IMVI melanoma = system: LOX IMVI melanoma
PC-3 prostate = system: PC-3 prostate
HS 578T breast = system: HS 578T breast
SK-MEL-5 melanoma = system: SK-MEL-5 melanoma
UACC-62 melanoma = system: UACC-62 melanoma
HOP-62 NSCLC = system: HOP-62 NSCLC
786-0 renal = system: 786-0 renal
HCC-2998 colon = system: HCC-2998 colon
NCI-H460 lung = system: NCI-H460 lung
NCI-H23 lung = system: NCI-H23 lung
U251 CNS = system: U251 CNS
MDA-MB-435 = system: MDA-MB-435
SF-539 CNS = system: SF-539 CNS
MALME-3M melanoma = system: MALME-3M melanoma
HCT-116 colon = system: HCT-116 colon
SR leukemia = system: SR leukemia
KM12 colon = system: KM12 colon
RXF 393 renal = system: RXF 393 renal
HOP-92 NSCLC = system: HOP-92 NSCLC
SF-295 CNS = system: SF-295 CNS
OVCAR-8 ovarian = system: OVCAR-8 ovarian
CAKI-1 renal = system: CAKI-1 renal
SN12C renal = system: SN12C renal
IGROV1 ovarian = system: IGROV1 ovarian
MDA-N = system: MDA-N
SNB-75 CNS = system: SNB-75 CNS
SK-OV-3 ovarian = system: SK-OV-3 ovarian
SK-MEL-2 melanoma = system: SK-MEL-2 melanoma
SW-620 colon = system: SW-620 colon
EKVX NSCLC = system: EKVX NSCLC
A549 NSCLC = system: A549 NSCLC
A498 renal = system: A498 renal
OVCAR-4 ovarian = system: OVCAR-4 ovarian
DU-145 prostate = system: DU-145 prostate
OVCAR-3 ovarian = system: OVCAR-3 ovarian
UO-31 renal = system: UO-31 renal
K-562 leukemia = system: K-562 leukemia
SNB-19 CNS = system: SNB-19 CNS
OVCAR-5 ovarian = system: OVCAR-5 ovarian
SK-MEL-28 melanoma = system: SK-MEL-28 melanoma
COLO 205 colon = system: COLO 205 colon
ACHN renal = system: ACHN renal
T-47D breast = system: T-47D breast
M14 melanoma = system: M14 melanoma
HCT-15 colon = system: HCT-15 colon
MDA-MB-231 breast = system: MDA-MB-231 breast
NCI-H226 lung = system: NCI-H226 lung
CCRF-CEM leukemia = system: CCRF-CEM leukemia
MOLT-4 leukemia = system: MOLT-4 leukemia
HL-60(TB) leukemia = system: HL-60(TB) leukemia
RPMI-8226 leukemia = system: RPMI-8226 leukemia

`N#CCCC1(CCC#N)CCCCCCC(CCC#N)(CCC#N)C(=O)C1=O` gave a TGI (MCF7 breast) of over 100 µM, a TGI (NCI/ADR-RES ovarian) of over 100 µM and a TGI (HT29 colon) of over 100 µM. It also gave a TGI (SF-268 CNS) of over 100 µM, a TGI (UACC-257 melanoma) of over 100 µM and a TGI (NCI-H522 lung) of over 100 µM. It also gave a TGI (TK-10 renal) of over 100 µM, a TGI (LOX IMVI melanoma) of over 100 µM and a TGI (PC-3 prostate) of over 100 µM. For the same compound, the TGI (HS 578T breast) was over 100 µM, the TGI (SK-MEL-5 melanoma) was over 100 µM and the TGI (UACC-62 melanoma) was over 100 µM. It also gave a TGI (HOP-62 NSCLC) of over 100 µM, a TGI (786-0 renal) of over 100 µM and a TGI (HCC-2998 colon) of over 100 µM. The TGI (NCI-H460 lung) was over 100 µM, the TGI (NCI-H23 lung) was over 100 µM and the TGI (U251 CNS) was over 100 µM. For the same compound, the TGI (MDA-MB-435) was over 100 µM, the TGI (SF-539 CNS) was over 100 µM and the TGI (MALME-3M melanoma) was over 100 µM. It also gave a TGI (HCT-116 colon) of over 100 µM, a TGI (SR leukemia) of over 100 µM and a TGI (KM12 colon) of over 100 µM. The TGI (RXF 393 renal) was over 100 µM, the TGI (HOP-92 NSCLC) was over 100 µM and the TGI (SF-295 CNS) was over 100 µM. It also gave a TGI (OVCAR-8 ovarian) of over 100 µM, a TGI (CAKI-1 renal) of over 100 µM and a TGI (SN12C renal) of over 100 µM. For the same compound, the TGI (IGROV1 ovarian) was over 100 µM, the TGI (MDA-N) was over 100 µM and the TGI (SNB-75 CNS) was over 100 µM. It also gave a TGI (SK-OV-3 ovarian) of over 100 µM, a TGI (SK-MEL-2 melanoma) of over 100 µM and a TGI (SW-620 colon) of over 100 µM. The TGI (EKVX NSCLC) was over 100 µM, the TGI (A549 NSCLC) was over 100 µM and the TGI (A498 renal) was over 100 µM. For the same compound, the TGI (OVCAR-4 ovarian) was over 100 µM, the TGI (DU-145 prostate) was over 100 µM and the TGI (OVCAR-3 ovarian) was over 100 µM. The TGI (UO-31 renal) was 20.8 µM, the TGI (K-562 leukemia) was over 100 µM and the TGI (SNB-19 CNS) was over 100 µM. The TGI (OVCAR-5 ovarian) was over 100 µM, the TGI (SK-MEL-28 melanoma) was over 100 µM and the TGI (COLO 205 colon) was over 100 µM. It also gave a TGI (ACHN renal) of over 100 µM, a TGI (T-47D breast) of over 100 µM and a TGI (M14 melanoma) of over 100 µM. It also gave a TGI (HCT-15 colon) of over 100 µM.
Work on `CC[C@H](C)[C@H]1NC(=O)[C@@H](NC(=O)[C@@H](CC(C)C)N(C)C(=O)C2CCCN2C(=O)[C@H](C)O)[C@@H](C)OC(=O)[C@@H]2Cc3ccccc3CN2C(=O)[C@@H]2CCCN2C(=O)[C@H](CC(C)C)NC(=O)[C@@H](C)C(=O)[C@H](C(C)C)OC(=O)C[C@@H]1O` (stereo not given in full) yielded a TGI (MCF7 breast) of 12.8 µM, a TGI (NCI/ADR-RES ovarian) of over 100 µM and a TGI (HT29 colon) of 10.7 µM. The TGI (MDA-MB-231 breast) was 10.3 µM, the TGI (SF-268 CNS) was 6.34 µM and the TGI (UACC-257 melanoma) was 6.11 µM. For the same compound, the TGI (NCI-H522 lung) was over 49.3 µM, the TGI (TK-10 renal) was over 70.1 µM and the TGI (LOX IMVI melanoma) was 9.11 µM. The TGI (HS 578T breast) was over 38.4 µM, the TGI (SK-MEL-5 melanoma) was 2.86 µM and the TGI (UACC-62 melanoma) was 4.47 µM. For the same compound, the TGI (HOP-62 NSCLC) was 12 µM, the TGI (786-0 renal) was 11.1 µM and the TGI (HCC-2998 colon) was 3.26 µM. The TGI (NCI-H460 lung) was 5.09 µM, the TGI (MDA-MB-435) was 8.1 µM and the TGI (SF-539 CNS) was 8.42 µM. The TGI (MALME-3M melanoma) was 5.16 µM, the TGI (HCT-116 colon) was 5.08 µM and the TGI (SR leukemia) was 1.08 µM. For the same compound, the TGI (KM12 colon) was 5.13 µM, the TGI (RXF 393 renal) was 6.48 µM and the TGI (HOP-92 NSCLC) was 28.8 µM. It also gave a TGI (SF-295 CNS) of over 28.6 µM, a TGI (OVCAR-8 ovarian) of over 54.8 µM and a TGI (CAKI-1 renal) of over 50 µM. For the same compound, the TGI (SN12C renal) was 5.56 µM, the TGI (IGROV1 ovarian) was over 73.7 µM and the TGI (MDA-N) was 12.5 µM. For the same compound, the TGI (SNB-75 CNS) was 1.94 µM, the TGI (SK-OV-3 ovarian) was over 42 µM and the TGI (SK-MEL-2 melanoma) was 1.55 µM. The TGI (SW-620 colon) was over 42.6 µM, the TGI (EKVX NSCLC) was over 55 µM and the TGI (A549 NSCLC) was 21.3 µM. For the same compound, the TGI (A498 renal) was 5.96 µM, the TGI (OVCAR-4 ovarian) was over 25 µM and the TGI (NCI-H226 lung) was 6.4 µM. The TGI (DU-145 prostate) was 6.31 µM, the TGI (OVCAR-3 ovarian) was 6.68 µM and the TGI (K-562 leukemia) was over 41.2 µM. For the same compound, the TGI (CCRF-CEM leukemia) was 1.66 µM, the TGI (OVCAR-5 ovarian) was 12.7 µM and the TGI (MOLT-4 leukemia) was 5 µM. The TGI (SK-MEL-28 melanoma) was 23.1 µM, the TGI (COLO 205 colon) was 2.61 µM and the TGI (ACHN renal) was 15.5 µM. The TGI (HL-60(TB) leukemia) was 0.433 µM, the TGI (T-47D breast) was over 100 µM and the TGI (RPMI-8226 leukemia) was 10.4 µM. The TGI (M14 melanoma) was 13.3 µM and the TGI (HCT-15 colon) was over 100 µM.

From PubChem BioAssay (NCI)
